Data as given in patent publication US20240094211A1, “COMPOSITIONS AND METHODS TARGETING S100A10 FOR THE TREATMENT AND DIAGNOSIS OF LIVER CANCER” (The University of Hong Kong, priority 2022, published 2024).

Legend:
PLC cells [1] = experiment: Sphere formation assay; format: cell-based, human
Protocol: A total of 1,000 cells were cultured in 0.25% methyl cellulose (Sigma-Aldrich) supplemented DMEM/F12 medium (Life Technologies) with 20 ng/mL EGF (Life Technologies), 10 ng/mL basic FGF (Life Technologies), B27 (1:50, GIBCO), and 4 μg/mL insulin (BIOIND, Kibbutz Beit Haemek, Israel) in 24-well plates, which were coated with poly HEMA (Sigma-Aldrich). The cells were replenished with 30 μL supplementary medium every other day.
(§1) HCC cells were seeded in 6-well plate and subjected to 2 μg EVs treatment for 48 hours one day after seeding. Then the cells were used for functional studies or western blotting. For treating with neutralizing antibodies, EVs were incubated with PBS (1:10 volume/volume), IgG antibody (1:10 volume/volume) (Santa Cruz, sc-2025), or anti-S100A10 neutralizing antibody (1:10 volume/volume) (Santa Cruz, sc-81153) before they were applied in in vitro or in vivo assays. For S100A10 NA or ITGAV treatment before EVs isolation, 20 ug S100A10 NA or IgG were pre-incubate with 1,000 million cells and then seed in medium with 10% EVs free FBS. Then the EVs were collected after 48 hours.

PLC cells [2] = experiment: Focus formation assay; format: cell-based, human
Protocol: Focus formation assay was used to assess anchorage-dependent growth. In brief, 1,000 cells were seeded in each well of six-well plate for approximately 2-3 weeks. Surviving colonies were stained and counted using crystal violet (Sigma-Aldrich).
as §1

PLC-Vec/S100A10 cells = experiment: XTT assay for cell proliferation with gefitinib; format: cell-based, human
HCC cells (PLC, 97L) [3] = experiment: Chemotherapy-induced cytotoxicity / chemoresistance (XTT assay); format: cell-based, human; conditions: for cell viability of S100A10-OE cells versus controls on treatment: PLC and 97L
HCC cells (PLC, 97L) [4] = experiment: Transwell migration and matrigel invasion assays (pretreated HCC cells); format: cell-based, human
Protocol: Transwell migration and invasion assays were performed to evaluate cell motility (Corning, #353097 for migration, #354480 for invasion). Approximately 1×10^5 cells were seeded in the medium without FBS on transwell upper chambers, and the lower chamber was supplied with medium with 10% FBS, with the indicated conditional medium, or EVs. The cells that migrated and invaded to the lower membrane surface were stained using crystal violet and then counted under microscopy.
as §1

HCC cells (PLC, 97L) [5] = experiment: Apoptotic assay (annexin-V staining, flow cytometry); format: cell-based, human; conditions: PLC and 97L, 48 h
Protocol: The apoptotic assay was determined by flow cytometry using annexin-V staining.

S100A10 = S100A10 expression under chemotherapeutic treatment (qRT-PCR, western blot); format: cell-based, human; conditions: HCC cells treated with chemotherapeutic agents
Protocol: Total RNA was extracted using the TRIZOL Reagent (Life Technologies). cDNA was synthesized by reverse transcription (Roche). SYRB Green PCR Master Mix (Applied Biosystems) and Applied Biosystems Quant Studio 5 Real-time PCR System were used for qRT-PCR analysis. All qRT-PCR reactions were tested in triplicates.
(§2) Quantified protein lysates were resolved on SDS-PAGE, transferred onto a polyvinylidenedifluoride (PVDF) membrane (Bio-Rad), and then blocked with 5% non-fat milk in Tris-buffered saline-Tween 20 (TBST) for 1 h at room temperature. The blocked membrane was then incubated with primary antibody diluted in 5% bovine serum albumin in TBST at 4° C. overnight.

[6] = system: PLC-S100A10 xenograft tumors; experiment: Chemoresistance / treatment in subcutaneous xenograft model; format: in vivo; conditions: nude mice
Protocol: All animal experiments were conducted and approved by the University of Hong Kong Committee on the Use of Live Animals in Teaching and Research (CULATR). The frequency of CSCs with tumor initiation capabilities was evaluated using limiting dilution assay. The BALB/c nude mouse xenograft model was used to evaluate tumorigenicity and chemoresistant ability in vivo. Nude mice were intrasplenically injected with HCC cells to assess the liver metastatic capacity in vivo. After surgery, mice recovered from anesthesia in a cage under a heater. Analgesia was provided to the nude mice during the first postoperative week. Tail vein injection of luciferase-labelled MHCC-97L cells in NOD SCID mice was used to assess lung metastatic ability. After mice were killed, the tumor tissues, livers, spleens, and lungs were excised and fixed in 4% paraformaldehyde overnight. Thereafter, fixed tissues were embedded in paraffin for further studies.
For chemoresistance in xenograft model, subcutaneous xenografts in nude mice were established with PLC/PRF/5 or MHCC97L cells. Treatment was started once the size of the xenograft reached ˜5 mm in diameter. The mice were randomly assigned into different groups, each consisting of at least 5 mice. Sorafenib at 10 mg/kg was administered daily through oral gavage. Mouse IgG antibody or anti-S100A10 antibody was administered at 10 μg once every 3 days by intraperitoneal injection.

HIF-1α = HIF-1α expression under chemotherapeutic treatment (western blot); format: cell-based, human; conditions: HCC cells treated with chemotherapeutic agents
Protocol: as §2

[7] = system: MMP2, fibronectin and EGF on EVs; experiment: Western blotting of MMP2, fibronectin, EGF and S100A10 in EVs and cells; format: cell-based, human; conditions: PLC-S100A10 cells treated 48 hours, compared with control GRADSP peptides (RAD)
Protocol: For EVs isolation from cell culture supernatants, HCC cells were cultured in medium with 10% EV-depleted FBS, which was prepared by 100,000× g centrifugation overnight (≥12 h) at 4° C. (Himac, CP100NX Ultracentrifuges). EVs were purified by differential centrifugation after the cell culture supernatant were collected. Briefly, cell culture supernatants were centrifuged at 2000×g for 15 min to remove cell debris and dead cells. Then the supernatant was centrifugated at 20000×g for 30 min at 4° C. to remove microvesicles. Then the supernatant was first passed through 0.22 μm filter followed by ultracentrifugation at 100,000×g for 2 h at 4° C. to collect EVs. The EVs were then washed with PBS and collected by ultracentrifugation at 100,000×g for another 2 h at 4° C. HCC patients' or healthy donors' plasma derived EVs were purified by differential centrifugation. The plasma was first centrifuged at 4000 g for 15 min to obtain cell-free plasma. Then, 500 μL of the obtained plasma was toped-up to 1 mL and then centrifuged at 20,000 g for 1 hour (Himac, CP100NX Ultracentrifuges). The collected supernatants were then centrifuged at 100,000 g for 2 h at 4° C. […]
Quantified protein lysates were resolved on SDS-PAGE, transferred onto a polyvinylidenedifluoride (PVDF) membrane (Bio-Rad), and then blocked with 5% non-fat milk in Tris-buffered saline-Tween 20 (TBST) for 1 h at room temperature. […]

COc1cc2ncnc(Nc3ccc(F)c(Cl)c3)c2cc1OCCCN1CCOCC1 [gefitinib]
sphere formation of S100A10-OE cells (PLC cells [1]): significantly suppressed
focus formation of S100A10-OE cells (PLC cells [2]): significantly suppressed
sensitivity of S100A10-OE cells versus Vec cells (cell proliferation) (PLC-Vec/S100A10 cells): more sensitive
chemoresistance of S100A10-OE cells (HCC cells (PLC, 97L) [3]; PLC S100A10-OE cells, sorafenib): significantly suppressed
invasion ability of S100A10-OE cells (HCC cells (PLC, 97L) [4]): significantly suppressed
migration ability of S100A10-OE cells (HCC cells (PLC, 97L) [4]): significantly suppressed

O=c1[nH]cc(F)c(=O)[nH]1 [5-FU, 5-flurouracil]
apoptotic indices of S100A10-OE cells versus controls on treatment (HCC cells (PLC, 97L) [5]): lower
expression of S100A10 (S100A10): upregulated
cell viability of S100A10-OE cells versus controls on treatment (HCC cells (PLC, 97L) [3]): significantly higher
xenograft tumor growth in PLC-S100A10 group versus control group when treated [6]: significantly larger

CNC(=O)c1cc(Oc2ccc(NC(=O)Nc3ccc(Cl)c(C(F)(F)F)c3)cc2)ccn1 [sorafenib]
apoptotic indices of S100A10-OE cells versus controls on treatment (HCC cells (PLC, 97L) [5]): lower
expression of S100A10 (S100A10): upregulated
cell viability of S100A10-OE cells versus controls on treatment (HCC cells (PLC, 97L) [3]): significantly higher
expression of HIF-1α (HIF-1α): upregulated
xenograft tumor growth in PLC-S100A10 group versus control group when treated [6]: significantly larger

N.N.[Cl][Pt][Cl] [cisplatin]
apoptotic indices of S100A10-OE cells versus controls on treatment (HCC cells (PLC, 97L) [5]): lower
expression of S100A10 (S100A10): upregulated
cell viability of S100A10-OE cells versus controls on treatment (HCC cells (PLC, 97L) [3]): significantly higher
expression of HIF-1α (HIF-1α): upregulated
xenograft tumor growth in PLC-S100A10 group versus control group when treated [6]: significantly larger

GRGDSP [RGD peptide]
S100A10 on EVs [7]: no changes
levels of MMP2, fibronectin and EGF on EVs [7]: greatly reduced
